Results reported in patent US8853264B2, “Use of lignan compounds for treating or preventing inflammatory disease” (Newtree Industry Co., Ltd., priority 2005, dated 2014).

What was measured:
[1] = Toxicity in oral administration to rats; settings: rat, in vivo, read-out: 50% lethality (LD50)
Experimental: The inventive lignan compound was tested for toxicity in oral administration to rats, and as a result, it was observed that the 50% lethality (LD50) was more than 2,000 mg/kg.

[2] = tested on: edemas of the rat ears induced by TPA; assay: TPA-induced rat ear edema inhibition test; format: in vivo, Wistar rats; settings: for Edema thickness: topical in acetone 30 min after TPA, measured after 8 hours
Experimental: The anti-inflammatory activity of the lignan compound isolated and purified in <Example 1> was tested in animal models. The anti-inflammatory activity was measured by edema inhibition test on rats. As the test animals, 5-week-old Wistar rats (DaeHan Biolink Co., Ltd, Korea) were used. The animals were provided with standard pellet forming rat feed (Cheiljedang Corporation, Korea) and given freely to feed and water. Also, the animals were housed in conditions of 12-hr light/12-hr dark cycle, temperature of 25±2° C. and humidity of 60±10%. Inflammation inducing agent TPA (12-O-tetradecanoylphorbol-13-acetate; Sigma) was dissolved in acetone to a concentration of 200 μg/mL. The edemas of the rat ears were induced by applying the TPA solution locally to each of the outer and inner faces of the ear in an amount of 10 μl/ear (4 μg/ear). The macelignan purified in <Example 1> and non-steroidal anti-inflammatory drug indomethacin as a control substance were dissolved in acetone and used in amounts of 20, 200 and 2000 μg/ear. Each of the macelignan and the indomethacin was applied locally to the rat ears at 30 minutes after treatment with TPA. A control group was locally applied with acetone. The thickness of the rat ears was measured with a caliper 8 hours after treatment with each of the substances. An increase in the ear thickness in the group treated with the sample was compared to that of the group untreated with the sample, and inflammation inhibitory effect was measured by calculating percent edema inhibition.

[3] = Skin barrier recovery test (TEWL, skin hydration, erythema index), atopic dermatitis model; format: in vivo, NC/Nga mice
Experimental: 8-week-old NC/Nga mice (20-25 g) were purchased from Chungang Lab. Animal. After adapting for 1 week, the NC/Nga mouse was anesthetized with 90% ethyl ether (Ducsan, Korea) and hair was removed from the occipital region and the back of the mouse using depilatory cream (Reckitt Benckiser, France). After allowing micro wound healing for a day, 100 mg of mite antigen cream (Biostir, Inc. Japan) comprising Dermatophagoides farina, which causes atopic dermatitis, as a main ingredient was evenly applied on the ear, occipital region and back, 3 times a week (for 5 weeks, from week 9 to week 13). 2 hours before application of the mite antigen cream, 4% SDS solution was applied at the same area to increase transdermal absorption of the mite antigen cream by inducing the breakdown of skin fats and cuticle layer. From week 3 following the application, IgE value was measured to quantitate the degree of atopic dermatitis. Also during the drug treatment period (week 12 to week 13), 100 mg of the mite antigen cream was applied 3 times a week to prevent spontaneous healing of the atopic dermatitis.
In order to induce atopic dermatitis, 100 mg of mite antigen cream was applied on the ear, occipital region and back of NC/Nga mouse (9 to 11 weeks old), except for the negative control group, 3 times a week, 2 hours after the application of 4% SDS solution. Three weeks later, it was observed whether atopic dermatitis was induced by checking skin rash, erythema, cornification, or the like. Atopic dermatitis was induced in all groups except for the negative control group. For drug treatment and evaluation of therapeutic effect, mice were grouped into 12 groups, 6 oral administration groups and 6 topical application groups (each consisting of negative control group, positive control group, macelignan low conc. group, macelignan high conc. group, nutmeg extract low conc. group, and nutmeg extract high conc. group), with n=5 per cage. During the following drug treatment and evaluation period of 2 weeks (12 to 13 weeks old), the negative control groups, which had not been treated with 4% SDS solution and mite antigen cream, were treated with physiological saline (oral administration group) or base cream (topical application group) every day, and the positive control groups, which had been treated with 100 mg of mite antigen cream 2 hours after application of 4% SDS solution, 3 times every week, were treated with physiological saline (oral administration group) or base cream (topical application group). The oral administration groups were treated with 100 mg of mite antigen cream 2 hours after application of 4% SDS solution, 3 times every week, and were treated with macelignan or nutmeg extract at low concentration (50 mg/kg/day) or high concentration (150 mg/kg/day) every day. The topical application groups were treated with 100 mg of mite antigen cream 2 hours after application of 4% SDS solution, 3 times every week, and were treated with macelignan cream or nutmeg extract cream at low concentration (20 mg/kg/day) or high concentration (60 mg/kg/day) every day. Transepidermal water loss (TEWL), skin hydration and erythema index were measured one day before the end of the test. Serum was obtained by retro-orbital blood sampling. After the end of the test (14 weeks old) spleen and skin tissues from occipital region and back were sampled and stored at −70° C. ALN (axillary lymph node) was stored in DMEM containing 2% FBS (fetal bovine serum). The skin tissues were stored in 10% formalin solution.
One day before the end of the experiment, TEWL, skin hydration and erythema index were measured to quantitatively compare recovery of skin barrier. TEWL was measured with a tewameter (TM300), skin hydration with a corneometer (CM825), and erythema index with a mexameter (MX18).

NO = NO production in RAW264.7 cells activated with LPS (Griess); format: cell-based
Experimental: RAW264.7 cells were diluted at a concentration of 1×10^6 cell/ml and then inoculated into RPMI 1640 medium. After 5 hours, the inventive macelignan was added to the medium at each of a concentration of 1-20 μM, followed by incubation for 2 hours. Then, the medium was treated with LPS (10 μg/ml) and incubated for 24 hours. A control group was treated only with LPS. The production of NO was quantified by measuring NO2^−, a reaction product of NO, using the remains of cell culture (Han et al., Life Sci., 75(6): 675-684, 2004). 100 μl of the remains of cell culture and the same volume of Greiss reagent (0.5% sulfanilyamide, 0.05% N-(1-naphthyl)ethylene diamine dihydrochloride/2.5% H3PO4) were mixed with each other on a 96-well tissue culture plate and allowed to react in a dark place for 10 minutes. Then, the absorbance of the sample was measured at 550 nm using the ELISA microplate reader. […] All tests were repeated at three times, and then quantified by student's t-test.

[4] = oral administration 50 mg/kg/day
[5] = oral administration 150 mg/kg/day
[6] = oral administration 50 and 150 mg/kg, p<0.01
[7] = topical application 20 mg/kg/day
[8] = topical application 60 mg/kg/day
[9] = topical application 20 and 60 mg/kg, p<0.01

COc1cc(C[C@H](C)[C@H](C)Cc2ccc3c(c2)OCO3)ccc1O (single isomer, unassigned) [macelignan]
LD50 [1]: > 2000 mg/kg
Edema inhibition ([2]; dose 20 μg/ear): 36.7%
Edema thickness ([2]; dose 20 μg/ear): 157 ± 9 μm
Edema inhibition ([2]; dose 200 μg/ear): 60.5%
Edema thickness ([2]; dose 200 μg/ear): 98 ± 6 μm
Edema inhibition ([2]; dose 2000 μg/ear): 79.0%
Edema thickness ([2]; dose 2000 μg/ear): 52 ± 4 μm
percent edema inhibition compared with indomethacin ([2]; local application on rat ears): higher than that of currently commercially available anti-inflammatory drug indomethacin
rat edema induced by TPA (result in words) ([2]; local application on rat ears): inhibited the formation of edema in a concentration-dependent manner
Erythema Index [3, 4]: 198.5 ± 46.8
Skin Hydration [3, 4]: 5.0 ± 0.8 AU
TEWL [3, 4]: 17.6 ± 8.1 g/hr · m^2
Erythema Index [3, 5]: 190 ± 24.4
Skin Hydration [3, 5]: 6.4 ± 2.8 AU
TEWL [3, 5]: 21.5 ± 9.2 g/hr · m^2
skin hydration compared to the positive control group ([3]; oral administration 50 and 150 mg/kg): effect of increasing skin hydration
TEWL compared to the positive control group [3, 6]: statistically significant effect of suppressing TEWL
erythema index compared to the positive control group [3, 6]: statistically significant effect of decreasing erythema index
Erythema Index [3, 7]: 163.3 ± 4.0
Skin Hydration [3, 7]: 12.4 ± 3.9 AU
TEWL [3, 7]: 25.8 ± 3.1 g/hr · m^2
Erythema Index [3, 8]: 190 ± 24
Skin Hydration [3, 8]: 13.4 ± 4.7 AU
TEWL [3, 8]: 26.2 ± 4.9 g/hr · m^2
TEWL compared to the positive control group [3, 9]: statistically significant effect of suppressing TEWL
erythema index compared to the positive control group [3, 9]: statistically significant effect of decreasing erythema index
skin hydration compared to the positive control group [3, 9]: statistically significant effect of increasing skin hydration
inhibition of NO production at low concentrations (NO; 1 μM and 5 μM, P<0.01): excellent effects on the inhibition of NO production
production of NO at 20 μM (NO; 20 μM macelignan): inhibited to an extent almost similar to that of the group treated with nothing
production of NO (NO; 1-20 μM, LPS 10 μg/ml, 24 hours): concentration-dependently inhibited
